Data: patent publication US20220304974A1, “COMPOSITION COMPRISING GOSSYPETIN FOR PREVENTION OR TREATMENT OF NEURODEGENERATIVE DISEASE” (NOVMETAHEALTH CO.,LTD., priority 2019, published 2022)

Experiments:
[1] = system: U2OS cells expressing VRK2; assay: Intracellular polyglutamine protein aggregation (dot blot, electrophoresis, microscopy), different concentrations of gossypetin; format: cell-based
Description: Polyglutamine protein aggregation is a cause of a degenerative brain disease. In order to investigate the polyglutamine protein aggregation inhibitory effect of gossypetin, U2OS cells expressing VRK2 were treated with different concentrations of gossypetin after the expression of a green fluorescent protein-conjugated polyglutamine protein, and a dot blot assay was performed. The protein aggregates formed in the cells were observed via electrophoresis, and the intracellular protein aggregate formation was observed using a microscope and quantitatively expressed.

chaperone protein CCT-4 = assay: Chaperone protein preservation (amount of CCT-4); settings: addition of gossypetin; FIG. 2E
microglia and astrocytes = assay: Gliosis analysis with IBA-1 and GFAP antibodies in brain slices; format: in vivo, mouse; settings: hippocampus and frontal lobe tissues; FIGS. 8 and 9
Description: The brains were extracted from the groups of Alzheimer's disease-induced mice fed and not fed with gossypetin and were made into slices, and then the distribution and proliferation of microglia and astrocytes were analyzed using an antibody against IBA-1, a specific protein of microglia, and an antibody against GFAP, a specific protein of astrocytes.

VRK2 [2] = target: T1, VRK2 (Homo sapiens, UniProt Q86Y07); assay: Binding between VRK2 and gossypetin-Sepharose 4B
Source text: First, gossypetin was chemically bound to Sepharose 4B (FIG. 2A), and then the binding between gossypetin and VRK2 was investigated.

VRK2 [3] = target: T1, VRK2; assay: VRK2 activity inhibition (in vitro kinase assay, autophosphorylation); format: biochemical
Source text: The kinase VRK2 is known to prevent the elimination of polyglutamine aggregates by regulating TRiC chaperone protein in cells.
The cytotoxicity of each compound was also examined.

[4] = system: 5×FAD Alzheimer's disease-induced mice; assay: Y-maze test in Alzheimer's disease-induced mice; format: in vivo, mouse; settings: for cognitive function (Y-maze test): 5×FAD mice, oral 10 mg/kg for 15 weeks from 8 weeks of age, FIG. 12
Description: (§1) […] Thereafter, Y-maze and Morris water maze tests were performed, which are widely used to check cognitive function. Specifically, short-term memory was assessed through the Y-maze test. The Morris water maze test was performed one week after the Y-maze test. Each mouse was trained to remember the location of the platform for 5 days, and then the time for the mouse to reach the platform was measured. On day 6 after the platform memory training, the platform was removed from the water tank, and the frequency of mouse staying at the site where the platform had been located was measured.

cells = assay: Cytotoxicity of each compound; format: cell-based; settings: FIG. 11C
Description: (§2) In addition, cells were treated with each compound together with the induction of polyglutamine protein aggregation, and the reduction in amount of protein aggregation in the cells was observed using a fluorescence microscope. The total area of protein aggregation occurring in the cells, average size of protein aggregation, and inhibition rate of protein aggregation compared with the drug-untreated control group are shown in the table. The cytotoxicity of each compound was also examined.

[5] = system: 5×FAD Alzheimer's disease-induced mice; assay: Morris water maze test in Alzheimer's disease-induced mice; format: in vivo, mouse; settings: 5×FAD mice; for memory of the platform site (water maze test): oral 10 mg/kg for 16 weeks from 8 weeks of age, platform removed on Day 6, FIG. 13
Description: as §1
In the water maze test, the mice were trained to find a platform placed under the surface in a water tank for 5 days, and then on Day 6, the platform was removed, and it was monitored how well the mice remembered the site where the platform had been located.

Aβ amyloid aggregates = assay: Immunohistochemistry staining of Aβ amyloid aggregates in brain slices; format: in vivo, mouse; settings: hippocampus and frontal lobe tissues; mice fed with gossypetin; FIGS. 6A to 6F
Description: The brains were extracted from the groups of Alzheimer's disease-induced mice fed and not fed with gossypetin and were made into slices, and then the formation of Aβ amyloid aggregates was analyzed using immunohistochemistry staining.

[6] = system: polyglutamine protein aggregation in the cells; assay: Intracellular polyglutamine protein aggregation, comparison of compounds (fluorescence microscope); format: cell-based; settings: compared with the drug-untreated control group; FIGS. 11A and 11B
Description: as §2

T1 sequence (Q86Y07 whole entry, species assumed): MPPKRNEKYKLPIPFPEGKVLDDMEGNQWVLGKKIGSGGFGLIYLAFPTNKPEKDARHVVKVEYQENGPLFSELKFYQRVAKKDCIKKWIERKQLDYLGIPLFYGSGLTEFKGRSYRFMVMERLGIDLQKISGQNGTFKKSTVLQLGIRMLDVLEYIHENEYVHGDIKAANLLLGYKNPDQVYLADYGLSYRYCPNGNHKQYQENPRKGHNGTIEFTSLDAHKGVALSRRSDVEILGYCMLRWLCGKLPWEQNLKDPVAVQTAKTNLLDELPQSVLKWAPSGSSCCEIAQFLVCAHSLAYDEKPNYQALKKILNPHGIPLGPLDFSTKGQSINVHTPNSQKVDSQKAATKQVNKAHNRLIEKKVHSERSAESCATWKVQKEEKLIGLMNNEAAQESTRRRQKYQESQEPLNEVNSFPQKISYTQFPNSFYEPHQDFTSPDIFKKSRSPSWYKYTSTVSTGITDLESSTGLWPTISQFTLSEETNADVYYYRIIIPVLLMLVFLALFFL

| SMILES | number of protein aggregate-bearing cells ([1]; FIGS. 1F to 1H) | polyglutamine protein aggregates ([1]; different concentrations of gossypetin, FIGS. 1A and 1B) | amount of the chaperone protein CCT-4 (chaperone protein CCT-4) | hyperactivity of microglia and astrocytes (gliosis) (microglia and astrocytes) | interaction between gossypetin and VRK2 (competition by added gossypetin) (VRK2 [2]; addition of gossypetin, FIG. 2C) | binding between gossypetin and VRK2 (VRK2 [2]; gossypetin-Sepharose 4B vs Sepharose 4B, FIG. 2B) | VRK2 activity (VRK2 [3]; different concentrations of gossypetin, FIG. 2D) | autophosphorylation activity of VRK2 (VRK2 [3]; same concentration of 25 μM, FIG. 10) | cognitive function (Y-maze test) [4] | short-term memory (Y-maze test) ([4]; 7-week-old 5×FAD mice, oral 10 mg/kg for 14 weeks, FIG. 3C) | cytotoxicity (cells) | time to find the platform (escape latency) ([5]; oral 10 mg/kg for 14 weeks, 5 days training, FIG. 4) | frequency of staying at the site where the platform had been located ([5]; oral 10 mg/kg for 14 weeks, platform removed, day 6, FIG. 5) | memory of the platform site (water maze test) [5] | Aβ amyloid aggregates (Aβ amyloid aggregates) | inhibition of the intracellular protein aggregation [6] |
| --- | --- | --- | --- | --- | --- | --- | --- | --- | --- | --- | --- | --- | --- | --- | --- | --- |
| O=c1c(O)c(-c2ccc(O)c(O)c2)oc2c(O)c(O)cc(O)c12 [gossypetin, 2-(3,4-dihydroxyphenyl)-3,5,7,8-tetrahydroxy-4H-chromen-4-one] | decreased | reduced depending on the gossypetin concentration | not decreased but increased | significantly reduced | specific | VRK2 and gossypetin bound to each other | inhibited depending on the concentration of gossypetin | most strongly inhibited | restored the behavioral alteration to an almost normal level | improvement in short-term memory to a level similar to that of normal mice | not showing toxicity in cells | found the platform in a shorter amount of time which was almost as fast as normal mice | increased frequency of staying at the site where the platform had been located | excellent memory comparable to normal mice | significantly reduced | 43% |
| O=C(/C=C/c1ccc(O)c(O)c1)O[C@H](Cc1ccc(O)c(O)c1)C(=O)O [rosmarinic acid, reference compound] |  |  |  |  |  |  |  |  | did not contribute to the alleviation of such cognitive function decline |  |  |  |  | not significantly restored |  |  |
